Earlier results in patent US20210139999A1, “PROGNOSTIC AND TREATMENT RESPONSE PREDICTIVE METHOD” (Cancer Research Technology Limited, priority 2018, published 2021).

Test system: renal cancer
Conditions: 81 patients with response data, single agent arm

Atezolizumab
responders: 25%
